Measurements published in ChEMBL document CHEMBL4152336, “Optimization of the first small-molecule relaxin/insulin-like family peptide receptor (RXFP1) agonists: Activation results in an antifibrotic gene expression profile” (Eur J Med Chem, 2018).
Converted amounts (≈) assume the structure as drawn. The source made the active and inactive calls. No cut-off for these calls is given here.

How the values were obtained:
Mus musculus [1] = assay: Toxicity in C57/BL6 mouse assessed as body weight at 3000 mg/kg, po treated for 5 days measured at day 1 post last dose (reference value: 20.3 +/- 2.6 g); type: organism-based; conditions: in vivo, 120 h
Homo sapiens = organism: Homo sapiens; assay: Down regulation of COL1A1 gene expression in human HSC at 5 uM after 24 to 72 hrs by RT-qPCR analysis; type: functional
Mus musculus [2] = assay: Toxicity in C57/BL6 mouse assessed as body weight at 90 mg/kg, po treated for 5 days measured at day 3 post last dose (reference value: 19.8 +/- 2.5 g); type: organism-based; conditions: in vivo, 120 h
Mus musculus [3] = assay: Toxicity in C57/BL6 mouse assessed as body weight at 3000 mg/kg, po treated for 5 days measured at day 2 post last dose (reference value: 19.8 +/- 2.3 g); type: organism-based; conditions: in vivo, 120 h
[4] = Drug level in C57/BL6 mouse heart at 30 mg/kg, po after 0.17 hrs; type: ADME, organism-based; conditions: in vivo
Mus musculus [5] = assay: Toxicity in C57/BL6 mouse at 3 to 30 mg/kg, po; type: organism-based; conditions: in vivo
Mus musculus [6] = assay: Toxicity in C57/BL6 mouse assessed as body weight at 90 mg/kg, po treated for 5 days measured at day 10 post last dose (reference value: 20.7 +/- 2.6 g); type: organism-based; conditions: in vivo, 120 h
Mus musculus [7] = assay: Toxicity in C57/BL6 mouse assessed as body weight at 90 mg/kg, po treated for 5 days measured at day 4 post last dose (reference value: 20.1 +/- 2.8 g); type: organism-based; conditions: in vivo, 120 h
[8] = Drug level in C57/BL6 mouse heart at 30 mg/kg, po after 7 hrs; type: ADME, organism-based; conditions: in vivo
[9] = Drug level in C57/BL6 mouse heart at 3 mg/kg, iv after 0.25 hrs; type: ADME, organism-based; conditions: in vivo
[10] = Drug level in C57/BL6 mouse heart at 30 mg/kg, po after 3 hrs; type: ADME, organism-based; conditions: in vivo
Mus musculus [11] = assay: Toxicity in C57/BL6 mouse assessed as mouse death at 90 to 3000 mg/kg, po treated for 5 days measured at day 5 post last dose; type: organism-based; conditions: in vivo, 120 h
Mus musculus [12] = assay: Toxicity in C57/BL6 mouse assessed as body weight at 300 mg/kg, po treated for 5 days measured at day 7 post last dose (reference value: 20.6 +/- 2.9 g); type: organism-based; conditions: in vivo, 120 h
[13] = Aqueous kinetic solubility of the compound in PBS by shake-flask method; type: physicochemical; conditions: PBS; read-out: Kinetic_solubility
Mus musculus [14] = assay: Toxicity in C57/BL6 mouse assessed as abnormal behavior at 3 to 30 mg/kg, po; type: organism-based; conditions: in vivo
[15] = Drug level in C57/BL6 mouse heart at 30 mg/kg, po after 2 hrs; type: ADME, organism-based; conditions: in vivo
Mus musculus [16] = assay: Toxicity in C57/BL6 mouse assessed as body weight at 300 mg/kg, po treated for 5 days measured at day 3 post last dose (reference value: 19.8 +/- 2.5 g); type: organism-based; conditions: in vivo, 120 h
Mus musculus [17] = assay: Toxicity in C57/BL6 mouse assessed as body weight at 300 mg/kg, po treated for 5 days measured at day 1 post last dose (reference value: 20.3 +/- 2.6 g); type: organism-based; conditions: in vivo, 120 h

SMILES: CC(C)Oc1ccccc1C(=O)Nc1ccccc1C(=O)Nc1cccc(S(=O)(=O)C(F)(F)F)c1
- Activity (Mus musculus [1]): 20.6 g
- Activity (Homo sapiens): Active
- Activity (Mus musculus [2]): 19.9 g
- Activity (Mus musculus [3]): 20.6 g
- Drug uptake [4]: 0.926 µmol/kg
- Activity (Mus musculus [5]): Non-Toxic
- Activity (Mus musculus [6]): 20.8 g
- Activity (Mus musculus [7]): 20 g
- Drug uptake [8]: 0.067 µmol/kg
- Drug uptake [9]: 2.084 µmol/kg
- Drug uptake [10]: 0.995 µmol/kg
- Activity (Mus musculus [11]): Non-Toxic
- Activity (Mus musculus [12]): 20.9 g
- solubility kinetic [13]: 7 µM (≈ 3.55 µg/mL)
- Activity (Mus musculus [14]): Non-Toxic
- Drug uptake [15]: 1.016 µmol/kg
- Activity (Mus musculus [16]): 20.4 g
- Activity (Mus musculus [17]): 20.4 g
